According to patent US20110160223A1, “NMDA Receptor Antagonists for the Treatment of Neuropsychiatric Disorders” (priority 2008, published 2011):
Read-outs that look alike come from different tables or passages of the source. One block for each compound: values may come before it.

Legend:
[1] = tested on: Salmonella typhimurium TA98, TA102; assay: Ames test for genotoxicity; conditions: 8 conc., 1.5-5000 μg/plate; +/− S9 both; strains TA98, TA102
Method: The Ames test determines the ability of a compound to reverse an introduced mutation in two strains of Salmonella typhimurium (selected from TA98, TA100, TA15345, TA1537, and TA102). (See for example Maron, D. M. and Ames, B. N., Mutat. Res., 1983, 113, 173-215.) Compounds were tested at eight dose levels 1.5, 5, 15, 50, 150, 500, 1500, and 5000 μg/plate in both the presence and absence of S-9 microsomal fraction in two bacterial strains (TA98, TA102). After incubation at 37° the number of revertant colonies was compared with the number of spontaneous revertants on negative (vehicle) plates. Positive control plates containing a known mutagen active in each of the strains in the presence of S-9 extract (2-aminoanthracene at 1-5 ug/plate) were also run.

[2] = tested on: MDR1-MDCK cell monolayers that express the multidrug transporter P-gp; assay: In vitro cell permeability assay to predict brain penetration potential; format: in vitro ADME; design: key: High: when Papp A−B≧3.0×10−6 cm/s, and efflux<3.0; Moderate: when Papp A−B≧3.0×10−6 cm/s, and 10>efflux≧3.0; Low: when either Papp A−B≧3.0×10−6 cm/s, and efflux≧10, or when Papp A−B<3.0×10−6 cm/s; conditions: 5 μM, pH 7.4, 2 hr, from Papp A-B and efflux ratio
Method: Penetration Classification (Table 24) using the in vitro cell permeability assay to predict bran penetration potential: Transwell® wells containing MDR1-MDCK cell monolayers that express the multidrug transporter P-gp were used for measuring the percent recovery of compound after dosing both sides of a cell monolayer with the test article. Monolayers were grown for 7-11 days at which time 5 μM of the test article was made by dilution from DMSO stocks into a Hank's balanced salt solution (pH 7.4), final DMSO not greater than 1%, and added to: a) the apical side for A-B permeability (apical to basal) assessment, or separately b) the basal side for the B-A permeability (basal to apical) assessment, all at pH 7.4. After a 2 hr incubation (37° C.) both the apical and the basal compartments were sampled and the amount of test article present determined by generic LC-MS/MS methods against a ≧4 point calibration curve. Experiments were done in duplicate. Apparent permeability (Papp units are reported×10−6 cm/s) are determined for the A−B and the B−A directions as well as the Efflux ratio (PappB−A/Papp A−B). The blood-brain barrier penetration potential is classified as follows: “High” when Papp A−B≧3.0×10−6 cm/s, and efflux<3.0; “Moderate” when Papp A−B≧3.0×10−6 cm/s, and 10>efflux≧3.0; and “Low” when either Papp A−B≧3.0×10−6 cm/s, and efflux≧10, or when Papp A−B<3.0×10−6 cm/s.

[3] = Brain exposure (brain:plasma ratio, Table 24); format: in vivo, Rats; conditions: for Kp at 15 min: 15 m
Method: Animals were fasted overnight prior to dose administration and food returned to the animals two hours after dosing. Following IV dosing, blood samples (ca 200 μL) were collected into separate tubes containing anticoagulant (K-EDTA) via the orbital plexus at various times post administration. Plasma samples were prepared immediately after collection by centrifugation for ten minutes using a tabletop centrifuge, and stored at −80° C. Brain tissue was weighed, homogenized on ice in 50 mM phosphate buffer (2 ml per brain) and the homogenate stored at −80° C. Plasma and brain homogenate samples were extracted by the addition of 5 volumes of cold acetonitrile, mixed well by vortexing and centrifuged at 4000 rpm for 15 minutes. The supernatant fractions were analyzed by LC-MS/MS operating in multiple reaction monitoring mode (MRM). The amount of parent compound in each sample was calculated by comparing the response of the analyte in the sample to that of a standard curve.

[4] = rat, brain and plasma, iv, 3 mg/kg, 3 MPK i.v., 30 m, read-out: RATIO: Brain:plasma (Direct)
[5] = rat, brain and plasma, iv, 3 mg/kg, 3 MPK i.v., 1 hr, read-out: RATIO: Brain:plasma (Direct)
[6] = rat, brain and plasma, iv, 3 mg/kg, 3 MPK i.v., avg, read-out: RATIO: Brain:plasma (Direct)

Compound: CCCCN(CCc1ccc(Cl)c(Cl)c1)CC(O)COc1ccc(NS(C)(=O)=O)cc1 (stereo not drawn) [Compound 93-31]
Genotoxicity (Ames) Result [1]: No positive

Compound: O=c1[nH]c2ccc(OC[C@@H](O)CN3CCN(c4ccc(Cl)cc4)CC3)cc2o1 [NP10056]
Genotoxicity (Ames) Result [1]: No positive

Compound: O=c1[nH]c2ccc(OC[C@@H](O)CN3CCN(c4ccc(Cl)cc4)CC3)cc2[nH]1 [NP10122]
Genotoxicity (Ames) Result [1]: No positive

Compound: Nc1ccc(OC[C@@H](O)CN2CCN(c3ccc(Cl)c(Cl)c3)C2=O)cc1 [NP10226]
Genotoxicity (Ames) Result [1]: No positive

Compound: Nc1ccc(OC[C@@H](O)CN2CCN(c3ccc(Cl)cc3)CC2)cc1 [NP10231]
Genotoxicity (Ames) Result [1]: No positive

Kp at 30 min [3, 4]: 11 | Kp at 1 h [3, 5]: 9.5 | Kp [3, 6]: 10.2
Compound: Oc1ccc(OC[C@@H](O)CN2CCN(c3ccc(Cl)cc3)CC2)cc1 [drawing 800]
BBB Pene Classification [2]: High (when Papp A−B≧3.0×10−6 cm/s, and efflux<3.0)

Kp at 30 min [3, 4]: 2.3 | Kp at 1 h [3, 5]: 2.9 | Kp at 2 h ([3]; rat, brain and plasma, iv, 3 mg/kg, 3 MPK i.v., 2 hr, read-out: RATIO: Brain:plasma (Direct)): 1.7 | Kp [3, 6]: 2.3
Compound: Cc1ccc(N2CCN(C[C@H](O)COc3ccc4[nH]c(=O)oc4c3)CC2)cc1 [drawing 801]
BBB Pene Classification [2]: Moderate (when Papp A−B≧3.0×10−6 cm/s, and 10>efflux≧3.0)

Kp at 30 min ([3]; rat, brain and plasma, ip, 60 mg/kg, 60 MPK, i.p., 30 m, read-out: RATIO: Brain:plasma (Direct)): 0.7 | Kp at 2 h ([3]; rat, brain and plasma, ip, 60 mg/kg, 60 MPK, i.p., 2 hr, read-out: RATIO: Brain:plasma (Direct)): 0.7 | Kp at 4 h ([3]; rat, brain and plasma, ip, 60 mg/kg, 60 MPK, i.p., 4 hr, read-out: RATIO: Brain:plasma (Direct)): 0.9 | Kp ([3]; rat, brain and plasma, ip, 60 mg/kg, 60 MPK, i.p., avg, read-out: RATIO: Brain:plasma (Direct)): 0.77
Compound: CS(=O)(=O)Nc1ccc(OC[C@@H](O)CN2CCN(c3ccc(F)c(F)c3)CC2)cc1 [drawing 802]
BBB Pene Classification [2]: Moderate (when Papp A−B≧3.0×10−6 cm/s, and 10>efflux≧3.0)

Compound: NC(=O)Nc1ccc(OC[C@@H](O)CN2CCN(c3ccc(Cl)cc3)CC2)cc1 [drawing 803]
BBB Pene Classification [2]: Low | Kp at 30 min ([3]; rat, brain and plasma, iv, 1 mg/kg, 1MPK i.v., 30 m, read-out: RATIO: Brain:plasma (Direct)): 0.24 | Kp at 6 h ([3]; rat, brain and plasma, iv, 3 mg/kg, 3 MPK i.v., 6 hr, read-out: RATIO: Brain:plasma (Direct)): 0.49 | Kp at 1 hr ([3]; rat, brain and plasma, iv, 3 MPK i.v. @ 6 hr, 1MPK @ 0.5 hr and 2 hr, 1 hr, read-out: RATIO: Brain:plasma (Direct)): 0.53 | Kp ([3]; rat, brain and plasma, iv, 3 MPK i.v. @ 6 hr, 1MPK @ 0.5 hr and 2 hr, avg, read-out: RATIO: Brain:plasma (Direct)): 0.42

Kp at 30 min [3, 4]: 0.68 | Kp at 1 h [3, 5]: 0.49 | Kp [3, 6]: 0.59
Compound: O=C1N(C[C@H](O)COc2ccc(O)cc2)CCN1c1ccc(Cl)cc1 [drawing 804]
BBB Pene Classification [2]: High (when Papp A−B≧3.0×10−6 cm/s, and efflux<3.0)

BBB Pene Classification [2]: Low | RATIO: Brain:plasma (Direct) ([3]; 1 MPK i.v.): Below Detection limit (~0)
Compound: NC(=O)Nc1ccc(OC[C@@H](O)CN2CCN(c3ccc(Cl)cc3)C2=O)cc1 [drawing 805]

Kp at 15 min ([3]; rat, brain and plasma, ip, 10 mg/kg, 10 MPK i.p., read-out: RATIO: Brain:plasma (Direct)): 0.25 | Kp at 30 min ([3]; rat, brain and plasma, ip, 10 mg/kg, 10 MPK i.p., 30 m, read-out: RATIO: Brain:plasma (Direct)): 0.49 | Kp at 1 h ([3]; rat, brain and plasma, ip, 10 mg/kg, 10 MPK i.p., 1 hr, read-out: RATIO: Brain:plasma (Direct)): 0.3 | Kp at 2 h ([3]; rat, brain and plasma, ip, 10 mg/kg, 10 MPK i.p., 2 hr, read-out: RATIO: Brain:plasma (Direct)): 0.36 | Kp ([3]; rat, brain and plasma, ip, 10 mg/kg, 10 MPK i.p., avg, read-out: RATIO: Brain:plasma (Direct)): 0.33
Compound: O=C(COc1ccc2[nH]c(=O)oc2c1)N1CCN(c2ccc(Cl)c(Cl)c2)CC1 [drawing 806]
BBB Pene Classification [2]: Moderate (when Papp A−B≧3.0×10−6 cm/s, and 10>efflux≧3.0)

Kp at 15 min ([3]; rat, brain and plasma, iv, 1 mg/kg i.v., read-out: RATIO: Brain:plasma (Direct)): 0.04 | Kp at 30 min ([3]; rat, brain and plasma, iv, 1 mg/kg i.v., 30 m, read-out: RATIO: Brain:plasma (Direct)): 0.06 | Kp at 1 h ([3]; rat, brain and plasma, iv, 1 mg/kg i.v., 1 hr, read-out: RATIO: Brain:plasma (Direct)): 0.07 | Kp at 3 h ([3]; rat, brain and plasma, iv, 1 mg/kg i.v., 3 hr, read-out: RATIO: Brain:plasma (Direct)): 0.1 | Kp ([3]; rat, brain and plasma, iv, 1 mg/kg i.v., avg., read-out: RATIO: Brain:plasma (Direct)): 0.07
Compound: O=C(COc1ccc2[nH]c(=O)[nH]c2c1)N1CCN(c2ccc(Cl)c(Cl)c2)CC1 [drawing 807]
BBB Pene Classification [2]: Moderate (when Papp A−B≧3.0×10−6 cm/s, and 10>efflux≧3.0)

RATIO: Brain:plasma (Direct) ([3]; 3 MPK i.v., 2 hr): BLQ | Kp at 30 min [3, 4]: 0.15 | Kp at 1 h [3, 5]: 0.35 | Kp [3, 6]: 0.25
Compound: Oc1ccc(OC[C@@H](O)CSc2nc3cc(Cl)c(Cl)cc3[nH]2)cc1 [drawing 808]
BBB Pene Classification [2]: High (when Papp A−B≧3.0×10−6 cm/s, and efflux<3.0)

RATIO: Brain:plasma (Direct) ([3]; 3 MPK i.v., 30 m): BLQ (avg); BLQ (30 m), BLQ (1 hr), | RATIO: Brain:plasma (Direct) ([3]; 3 MPK i.v., 1 hr): BLQ (avg); BLQ (30 m), BLQ (1 hr), | RATIO: Brain:plasma (Direct) ([3]; 3 MPK i.v., avg): BLQ (avg); BLQ (30 m), BLQ (1 hr),
Compound: O=c1[nH]c2ccc(OC[C@@H](O)CSc3nc4cc(Cl)c(Cl)cc4[nH]3)cc2o1 [drawing 809]
BBB Pene Classification [2]: Moderate (when Papp A−B≧3.0×10−6 cm/s, and 10>efflux≧3.0)
